Earlier results as cited in paper PMC9890135 (Molecular Cancer Therapeutics, 2022).

Conditions: cited from earlier work

## COc1cc2nccc(Oc3ccc(NC(=O)C4(C(=O)Nc5ccc(F)cc5)CC4)cc3)c2cc1OC [Cabozantinib, cabozantinib]
  plasma half-life: approximately 99 hours
